Columns and labels:
[1] = system: PBMCs; experiment: LPS-induced TNFα/IL-8 release in PBMC cells; type: cell-based; conditions: Homo sapiens, assay (b)
In short: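 Healthy-donor PBMCs isolated by density gradient were pretreated with compound for 2 h, then stimulated with 1 ng/mL LPS (E. coli 0111:B4) for 24 h at 37° C., 5% CO2. IL-8 and TNFα in supernatants measured by sandwich ELISA.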

[2] = system: PBMCs; experiment: IL-2 and IFN gamma release in CD3/CD28 stimulated PBMC cells; type: cell-based; conditions: Homo sapiens, assay (c)
In short: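 Healthy-donor PBMCs, density-gradient isolated, stimulated on plates pre-coated with anti-CD3 (0.3 μg/mL) and anti-CD28 (3 μg/mL) antibodies, with compound, for 3 days under standard culture conditions. IC50 derived from the dose-response curve.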

[3] = system: HT29 cells; experiment: IL-1β-induced IL-8 release in HT29 cells; type: cell-based; conditions: Homo sapiens, HT-29, assay (d), read-out: IC50 Values for Inhibition of Cytokine Release HT29 cells IL-8
Method: HT29 cells, a human colon adenocarcinoma cell line, are plated in a 96 well plate (24 hr) and pre-treated with compounds at the desired concentration for 2 hours before addition of 5 ng/mL of IL-1β (Abcam) for 24 hours. Supernatants are harvested for IL-8 quantification by Sandwich ELISA (Duo-set, R&D System). The IC50 is determined from the dose response curve.

[4] = system: BDF1 mice; experiment: TNBS-induced colitis in mice; type: in vivo; conditions: conducted over 2 days; vehicle corn oil/transcutol/maisine/cremophor ELP
Method: Non-fasted, 10-12 week old, male BDF1 mice are dosed by oral gavage twice daily with either vehicle (5 mL/kg), reference item (Budesonide 2.5 mg/kg) or test compound (1 or 5 mg/kg) one day before (Day −1) stimulation of the inflammatory response by treatment with 2,4,6-trinitrobenzenesulphonic acid (TNBS) (15 mg/mL in 50% ethanol/50% saline). On Day 0 of the study TNBS (200 μL) is administered intra-colonically via a plastic catheter with BID dosing of the vehicle, reference or test compound continuing for 2 or 4 days. During the study, animals are weighed every day and stool observations are made and recorded as a score, based on stool consistency. At the time of sacrifice on Day 2 (or Day 4), the large intestine is removed and the length and weight recorded. Sections of the colon are taken for histopathology scoring to determine disease severity.

[5] = system: SCID animals; experiment: Adoptive transfer in mice (CD45RBhigh cells into SCID animals); type: in vivo; conditions: for % Inhibition: Table 6a, inhibition of the induction window between naïve and vehicle animals; for levels of pro-inflammatory cytokines in samples of colon tissue: adoptive transfer model
Method: On Study day 0, female Balb/C mice are terminated and spleens obtained for CD45RB^high cell isolation (Using SCID IBD cell Separation protocol). Approximately 4×10^5 cells/mL CD45RB^high cells are then injected intraperitoneally (100 μL/mouse) into female SCID animals. On study day 14, mice are weighed and randomized into treatment groups based on body weight. On Day 14, compounds are administered BID, via oral gavage, in a peanut oil vehicle at the dose levels outlined below in Tables 6a and 6b and a dose volume of 5 mL/kg. Treatment continues until study day 42, at which point the animals are necropsied 4 hours after the morning administration. The colon length and weight are recorded and used as a secondary endpoint in the study as a measurement of colon oedema. The colon is then divided into six cross-sections, four of which are used for histopathology scoring (primary endpoint) and two are homogenised for cytokine analysis. Data shown is the % inhibition of the induction window between naïve animals and vehicle animals, where higher inhibition implies closer to the non-diseased, naïve, phenotype.

[6] = Plasma pharmacokinetics in rats, single intravenous or oral administration; type: in vivo; conditions: male, Wistar, rat; for clearance: rats, intravenous 0.25 mg/kg
Method: Studies were conducted by Sai Life Sciences (Hinjewadi, Pune, India) to investigate the plasma pharmacokinetics and total colon tissue distribution of compounds of the invention. In particular, pharmacokinetic studies were carried out in: • male C57BL/6 mice, following a single oral administration; and • male Wistar rats following a single intravenous or oral administration.

[7] = system: Salmonella typhimurium TA98; experiment: Bacterial reverse mutation screen, strain TA98; type: cell-based; conditions: presence or absence of S-9 mix; up to 1000 μg/plate analysable
Method: (§1) Studies were conducted by Sequani (Ledbury, Herefordshire, UK) to assess compounds of the invention for their ability to induce mutations in two histidine dependent auxotrophic mutants of Salmonella typhimurium, strains TA98 and TA100 in vitro.
(§2) The mutation screen was conducted using the plate incorporation method and was performed in both the presence and absence of S-9 mix (a liver post-mitochondrial fraction derived from the livers of Aroclor 1254 treated rats). The bacteria were exposed to test compounds dissolved in dimethylsulphoxide, which solvent was also used as the negative control. The dose levels used were 0.32, 1.6, 8, 40, 200, 1000 or 5000 μg/plate.
(§3) Precipitation was also noted in both strains at 1000 μg/plate in the presence and absence of S-9 mix.

[8] = system: Salmonella typhimurium TA100; experiment: Bacterial reverse mutation screen, strain TA100; type: cell-based; conditions: presence or absence of S-9 mix; up to 1000 μg/plate analysable
Method: as §1, §2, §3

[9] = Hydrolytic stability study (DMSO/water 3:1, 60° C.); type: physicochemical
Method: Chemical stability of compounds of the invention was assessed in a mixture of DMSO and water (3:1) at a test compound concentration of 1 mg/mL
Agilent, Waters X-Select C18, 2.5 μm, 4.6×30 mm column, 4 min method, 5-95%
MeCN/water (0.1% formic acid).
Column Oven Temperature 40° C.
Sample Preparation • A 1.0 mg sample of test compound was dissolved in 750 μL of DMSO. Water (250 μL) was added slowly, ensuring no precipitation occurred.
Recording Stability • A 50 μL aliquot of the test solution was removed and analysed in duplicate by 5 μL HPLC injections. The peak area for the test compound was recorded following manual integration of the corresponding UV trace. • The test solution was heated to 60° C., with stirring, and 50 μL aliquots removed for HPLC analysis at 5 and 24 h timepoints.

[10] = read-out: IC50 Values for Inhibition of Cytokine Release PBMCs IL-8
[11] = read-out: IC50 Values for Inhibition of Cytokine Release PBMCs IFNγ
[12] = read-out: IC50 Values for Inhibition of Cytokine Release PBMCs IL-2
[13] = po, 5 mg/kg, read-out: Median plasma concentration

SMILES	IC50 [1, 10] [nM]	IC50 [2, 11] [nM]	IC50 [2, 12] [nM]	IC50 [3] [nM]	activity in TNBS-induced colitis (histopathology analysis) [4]	levels of pro-inflammatory cytokines in samples of colon tissue [5]	clearance [6] [mL/min/kg]	increases in revertant colonies, strain TA98 [7]	increases in revertant colonies, strain TA100 [8]	% Parent Remaining ([9]; DMSO/water 3:1, 0 min) [%]	further results
COCCOCCOCCOc1cc(Nc2nccc(Oc3ccc(NC(=O)Nc4cc(C(C)(C)C)cc(NS(C)(=O)=O)c4OC)c4ccccc34)n2)cc(OC)c1 [Example 4, N-(5-(tert-Butyl)-2-methoxy-3-(3-(4-((2-((3-methoxy-5-(2-(2-(2-methoxyethoxy)ethoxy)-ethoxy)phenyl)amino)pyrimidin-4-yl)oxy)naphthalen-1-yl)ureido)phenyl)methanesulfonamide]	1.4	4.2	40.5	4.9	displayed substantial activity	significantly reduced	7.9	no dose-related or statistically significant increases in revertant colonies	no dose-related or statistically significant increases in revertant colonies	100	IC50 ([1]; read-out: IC50 Values for Inhibition of Cytokine Release PBMCs TNFα): 0.7 nM; % Inhibition ([5]; 0.3 mg/kg BID oral gavage): 62%; % Inhibition ([5]; 1 mg/kg BID oral gavage): 110%
C#Cc1cc(Nc2nccc(Oc3ccc(NC(=O)Nc4cc(C(C)(C)C)cc(NS(C)(=O)=O)c4OC)c4ccccc34)n2)cc(C(=O)NCCOCCOCCOC)c1 [Example 16, 3-((4-((4-(3-(5-(tert-Butyl)-2-methoxy-3-(methylsulfonamido)phenyl)ureido)naphthalen-1-yl)oxy)pyrimidin-2-yl)amino)-5-ethynyl-N-(2-(2-(2-methoxyethoxy)ethoxy)ethyl)benzamide]	1.5	7.3	74	8	displayed substantial activity	significantly reduced	4.8	no dose-related or statistically significant increases in revertant colonies	no dose-related or statistically significant increases in revertant colonies	100	activity in adoptive transfer model (ratios of colon weight to length) ([5]; end of the study): displayed significant activity; concentration at 0.25 h [6, 13]: 0 ng/mL; concentration at 0.5 h [6, 13]: 0 ng/mL; concentration at 1 h [6, 13]: 0 ng/mL; concentration at 2 h [6, 13]: 0 ng/mL; concentration at 4 h [6, 13]: 0 ng/mL; concentration at 6 h [6, 13]: 0 ng/mL; concentration at 8 h [6, 13]: 0 ng/mL; concentration at 12 h [6, 13]: 0 ng/mL; concentration at 24 h [6, 13]: 0 ng/mL; % Parent Remaining ([9]; DMSO/water 3:1, 60° C., 300 min): 100%; % Parent Remaining ([9]; DMSO/water 3:1, 60° C., 1440 min): 100%
COc1cc(Nc2cc(Oc3ccc(NC(=O)Nc4cc(C(C)(C)C)cc(NS(C)(=O)=O)c4OC)c4ccccc34)ccn2)cc(C(=O)NCCN2CCOCC2)c1 [Example 27, 3-((4-((4-(3-(5-(tert-Butyl)-2-methoxy-3-(methylsulfonamido)phenyl)ureido)naphthalen-1-yl)oxy)pyridin-2-yl)amino)-5-methoxy-N-(2-morpholinoethyl)benzamide]	1.9	11	46.3	8.3	displayed substantial activity	significantly reduced	7.1	no dose-related or statistically significant increases in revertant colonies	no dose-related or statistically significant increases in revertant colonies	100	% Inhibition ([5]; 3 mg/kg BID oral gavage): 99%
